What all share (assay): relative viability (nuclei count vs DMSO), 5 days (fraction); higher = more cells survive
Compound in test [1]: CN1C=C(C2=CC=CC=C21)/C=C\3/C4=C(C=CC=N4)NC3=O + COc1cc2c(Oc3ccc(NC(=O)C4(C(=O)Nc5ccc(F)cc5)CC4)cc3F)ccnc2cc1OCCCN1CCOCC1 [Foretinib] (partner 0.25 µM)
The method in brief: (§1)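 The day after seeding in 1536-well plates, lung cancer cell lines were treated by pin tool with a single drug, or with a fixed anchor-drug dose together with five library-drug doses (not always all listed) in √10 steps. After 5 days, a combined fix-and-stain solution (final 0.05% Triton X-100, 1% formaldehyde, 1 ug/ml Hoechst) was added. Nuclei counted on 4× images gave relative viability as treated counts over vehicle counts, reported as the median of duplicate plates.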

Compound in the test “Trametinib + Olaparib”: CC(=O)Nc1cccc(-n2c(=O)n(C3CC3)c(=O)c3c(Nc4ccc(I)cc4F)n(C)c(=O)c(C)c32)c1 [Trametinib] + O=C(c1cc(Cc2n[nH]c(=O)c3ccccc23)ccc1F)N1CCN(C(=O)C2CC2)CC1 [Olaparib] (partner 8 µM)
In outline:
as §1

Compound in the test “Trametinib + Lapatinib”: CC(=O)Nc1cccc(-n2c(=O)n(C3CC3)c(=O)c3c(Nc4ccc(I)cc4F)n(C)c(=O)c(C)c32)c1 [Trametinib] + CS(=O)(=O)CCNCc1ccc(-c2ccc3ncnc(Nc4ccc(OCc5cccc(F)c5)c(Cl)c4)c3c2)o1 [Lapatinib] (partner 2 µM)
In outline:
as §1

Compound in test [2]: CN1C=C(C2=CC=CC=C21)/C=C\3/C4=C(C=CC=N4)NC3=O + O=C(c1cc(Cc2n[nH]c(=O)c3ccccc23)ccc1F)N1CCN(C(=O)C2CC2)CC1 [Olaparib] (partner 8 µM)
The method in brief: as §1

EBC-1: the relative viability was found to be 0.0992 in test [1] (first compound 0.02 µM); 0.108 in test [1] (first compound 0.06325 µM); 0.0997 in test [1] (first compound 0.2 µM); 0.0962 in test [1] (first compound 0.6325 µM); 0.0995 in test [1] (first compound 2 µM); 0.745 with Trametinib + Olaparib (first compound 0.0025 µM). Also, the relative viability in the test with Trametinib + Olaparib (first compound 0.007906 µM) is 0.681; with Trametinib + Olaparib (first compound 0.025 µM), 0.543; with Trametinib + Olaparib (first compound 0.07906 µM), 0.179; with Trametinib + Olaparib (first compound 0.25 µM), 0.195; in the test with Trametinib + Lapatinib (first compound 0.0025 µM) it was 0.189; in the test with Trametinib + Lapatinib (first compound 0.007906 µM) it was 0.199. Moreover, the relative viability with Trametinib + Lapatinib (first compound 0.025 µM) was found to be 0.189; with Trametinib + Lapatinib (first compound 0.07906 µM), 0.225; with Trametinib + Lapatinib (first compound 0.25 µM), 0.213; in test [2] (first compound 0.02 µM), 0.728; in test [2] (first compound 0.06325 µM) it was 0.68; in test [2] (first compound 0.2 µM), 0.623. In addition, the relative viability in test [2] (first compound 0.6325 µM) worked out at 0.625; in test [2] (first compound 2 µM) it was 0.585.

COR-L23: the relative viability in test [1] (first compound 0.02 µM) stood at 1.11; in test [1] (first compound 0.06325 µM), 1.04; in test [1] (first compound 0.2 µM), 0.92; in test [1] (first compound 0.6325 µM), 1.1; in test [1] (first compound 2 µM) it was 1.08; in the test with Trametinib + Olaparib (first compound 0.0025 µM) it was 0.422. Further, the relative viability in the test with Trametinib + Olaparib (first compound 0.007906 µM) came out at 0.473; with Trametinib + Olaparib (first compound 0.025 µM), 0.43; with Trametinib + Olaparib (first compound 0.07906 µM), 0.392; in the test with Trametinib + Olaparib (first compound 0.25 µM) it was 0.261; in the test with Trametinib + Lapatinib (first compound 0.0025 µM) it was 1.04; with Trametinib + Lapatinib (first compound 0.007906 µM), 0.923. Besides, the relative viability with Trametinib + Lapatinib (first compound 0.025 µM) worked out at 0.786; with Trametinib + Lapatinib (first compound 0.07906 µM), 0.788; in the test with Trametinib + Lapatinib (first compound 0.25 µM) it was 0.48; in test [2] (first compound 0.02 µM), 0.349; in test [2] (first compound 0.06325 µM) it was 0.289; in test [2] (first compound 0.2 µM) it was 0.274. Further, the figures for the relative viability in test [2] (first compound 0.6325 µM) and in test [2] (first compound 2 µM) were 0.283 and 0.312, respectively.

EMC-BAC-2: the relative viability in test [1] (first compound 0.02 µM) was determined as 1.04; in test [1] (first compound 0.06325 µM) it was 0.996; in test [1] (first compound 0.2 µM), 1.01; in test [1] (first compound 0.6325 µM), 1.06; in test [1] (first compound 2 µM) it was 1.08; with Trametinib + Olaparib (first compound 0.0025 µM) it was 0.638. The relative viability with Trametinib + Olaparib (first compound 0.007906 µM) came to 0.623; with Trametinib + Olaparib (first compound 0.025 µM) it was 0.617; with Trametinib + Olaparib (first compound 0.07906 µM) it was 0.69; with Trametinib + Olaparib (first compound 0.25 µM), 0.476; in the test with Trametinib + Lapatinib (first compound 0.0025 µM) it was 0.866; in the test with Trametinib + Lapatinib (first compound 0.007906 µM), 0.872. The relative viability was 0.711 in the test with Trametinib + Lapatinib (first compound 0.025 µM); 0.92 with Trametinib + Lapatinib (first compound 0.07906 µM); 0.626 with Trametinib + Lapatinib (first compound 0.25 µM); 0.354 in test [2] (first compound 0.02 µM); 0.445 in test [2] (first compound 0.06325 µM); 0.488 in test [2] (first compound 0.2 µM). In addition, the relative viability was 0.418 in test [2] (first compound 0.6325 µM) and 0.383 in test [2] (first compound 2 µM).

NCI-H1944: the relative viability in test [1] (first compound 0.02 µM) worked out at 0.89; in test [1] (first compound 0.06325 µM), 0.874; in test [1] (first compound 0.6325 µM), 0.826; in test [1] (first compound 2 µM), 0.77; with Trametinib + Olaparib (first compound 0.0025 µM), 0.39; with Trametinib + Olaparib (first compound 0.007906 µM), 0.343. Moreover, the relative viability with Trametinib + Olaparib (first compound 0.025 µM) was determined as 0.341; in the test with Trametinib + Olaparib (first compound 0.07906 µM), 0.288; in the test with Trametinib + Olaparib (first compound 0.25 µM), 0.236; in the test with Trametinib + Lapatinib (first compound 0.0025 µM), 0.76; in the test with Trametinib + Lapatinib (first compound 0.007906 µM), 0.632; with Trametinib + Lapatinib (first compound 0.025 µM) it was 0.588. Also, the relative viability with Trametinib + Lapatinib (first compound 0.07906 µM) amounted to 0.493; in the test with Trametinib + Lapatinib (first compound 0.25 µM) it was 0.396; in test [2] (first compound 0.02 µM), 0.382; in test [2] (first compound 0.06325 µM), 0.368; in test [2] (first compound 0.6325 µM) it was 0.377; in test [2] (first compound 2 µM), 0.403.

Turning to A-427, the relative viability in test [1] (first compound 0.02 µM) is 1.18; in test [1] (first compound 0.06325 µM), 1.21; in test [1] (first compound 0.6325 µM), 0.958; in test [1] (first compound 2 µM), 1.1; in the test with Trametinib + Olaparib (first compound 0.0025 µM), 0.748; in the test with Trametinib + Olaparib (first compound 0.007906 µM) it was 0.828. In addition, the relative viability in the test with Trametinib + Olaparib (first compound 0.025 µM) turned out to be 0.729; with Trametinib + Olaparib (first compound 0.07906 µM), 0.671; in the test with Trametinib + Olaparib (first compound 0.25 µM), 0.524; with Trametinib + Lapatinib (first compound 0.0025 µM), 1.1; with Trametinib + Lapatinib (first compound 0.007906 µM), 1.05; in the test with Trametinib + Lapatinib (first compound 0.025 µM) it was 0.619. Also, the relative viability with Trametinib + Lapatinib (first compound 0.07906 µM) amounted to 0.818; with Trametinib + Lapatinib (first compound 0.25 µM) it was 0.678; in test [2] (first compound 0.02 µM), 0.708; in test [2] (first compound 0.06325 µM), 0.606; in test [2] (first compound 0.6325 µM) it was 0.71; in test [2] (first compound 2 µM), 0.76.

Consider NCI-H520, for which the relative viability came out at 0.639 in test [1] (first compound 0.02 µM); 0.773 in test [1] (first compound 0.06325 µM); 0.847 in test [1] (first compound 0.2 µM); 0.717 in test [1] (first compound 0.6325 µM); 0.937 in test [1] (first compound 2 µM); 0.353 with Trametinib + Olaparib (first compound 0.0025 µM). In addition, the relative viability with Trametinib + Olaparib (first compound 0.007906 µM) came to 0.317; in the test with Trametinib + Olaparib (first compound 0.025 µM), 0.355; in the test with Trametinib + Olaparib (first compound 0.07906 µM), 0.306; in the test with Trametinib + Olaparib (first compound 0.25 µM), 0.302; with Trametinib + Lapatinib (first compound 0.0025 µM), 0.855; in the test with Trametinib + Lapatinib (first compound 0.007906 µM) it was 0.912. Further, the relative viability in the test with Trametinib + Lapatinib (first compound 0.025 µM) is 0.756; with Trametinib + Lapatinib (first compound 0.07906 µM), 0.68; in the test with Trametinib + Lapatinib (first compound 0.25 µM), 0.428; in test [2] (first compound 0.02 µM) it was 0.298; in test [2] (first compound 0.06325 µM) it was 0.369; in test [2] (first compound 0.2 µM), 0.312. Moreover, the relative viability is 0.342 in test [2] (first compound 0.6325 µM) and 0.363 in test [2] (first compound 2 µM).

Values taken from the supplement of paper PMC10307832.
